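96-well plates; 48 h exposure; 5 concentrations. Endpoints by linear interpolation between flanking doses. Not reached: highest tested concentration assigned. GI50 is the concentration that inhibits growth by half.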 Activity calls are given as the source filed them. No stated cut-off is given here; in the data, active = GI50 up to about 1.1 µM and inactive = higher.
Columns and labels:
Test in all cases: inhibition of tumour cell growth, NCI panel, 48 h
NCI-H522 = system: NCI-H522
NCI/ADR-RES = system: NCI/ADR-RES
HT-29 = system: HT-29
HL-60 = system: HL-60
SF-268 = system: SF-268
HOP-92 = system: HOP-92
SK-OV-3 = system: SK-OV-3
K562 = system: K562
SW-620 = system: SW-620
SK-MEL-5 = system: SK-MEL-5
RXF 393 = system: RXF 393
NCI-H23 = system: NCI-H23
CCRF-CEM = system: CCRF-CEM
OVCAR-5 = system: OVCAR-5
UACC-257 = system: UACC-257
SF-539 = system: SF-539
T47D = system: T47D
MOLT-4 = system: MOLT-4
ACHN = system: ACHN
UACC-62 = system: UACC-62
PC-3 = system: PC-3
SK-MEL-2 = system: SK-MEL-2
MDA-MB-231 = system: MDA-MB-231
Hs-578T = system: Hs-578T
A549 = system: A549
EKVX = system: EKVX
786-0 = system: 786-0
TK-10 = system: TK-10
NCI-H226 = system: NCI-H226
MCF7 = system: MCF7
KM12 = system: KM12
OVCAR-3 = system: OVCAR-3
BT-549 = system: BT-549
IGROV-1 = system: IGROV-1
SN12C = system: SN12C
Malme-3M = system: Malme-3M
COLO 205 = system: COLO 205
HCT-116 = system: HCT-116
U-251 = system: U-251
HCT-15 = system: HCT-15
UO-31 = system: UO-31
MDA-N = system: MDA-N
SF-295 = system: SF-295
SR = system: SR
M14 = system: M14
NCI-H460 = system: NCI-H460
A498 = system: A498
MDA-MB-435 = system: MDA-MB-435
SNB-75 = system: SNB-75
CAKI-1 = system: CAKI-1
DU-145 = system: DU-145
SNB-19 = system: SNB-19
LOX IMVI = system: LOX IMVI
RPMI-8226 = system: RPMI-8226
OVCAR-4 = system: OVCAR-4
HOP-62 = system: HOP-62
SK-MEL-28 = system: SK-MEL-28
OVCAR-8 = system: OVCAR-8

Compound: Cn1c(=S)c2nc(SCCN3CCCC3)[nH]c2n(C)c1=O
- GI50 (NCI-H522): > 100 µM (inactive)
- GI50 (NCI/ADR-RES): > 100 µM (inactive)
- GI50 (HT-29): > 100 µM (inactive)
- GI50 (HL-60): > 100 µM (inactive)
- GI50 (SF-268): > 100 µM (inactive)
- GI50 (HOP-92): > 100 µM (inactive)
- GI50 (SK-OV-3): > 100 µM (inactive)
- GI50 (K562): > 100 µM (inactive)
- GI50 (SW-620): > 100 µM (inactive)
- GI50 (SK-MEL-5): > 100 µM (inactive)
- GI50 (RXF 393): > 100 µM (inactive)
- GI50 (NCI-H23): > 100 µM (inactive)
- GI50 (CCRF-CEM): > 100 µM (inactive)
- GI50 (OVCAR-5): > 100 µM (inactive)
- GI50 (UACC-257): > 100 µM (inactive)
- GI50 (SF-539): > 100 µM (inactive)
- GI50 (T47D): > 100 µM (inactive)
- GI50 (MOLT-4): > 100 µM (inactive)
- GI50 (ACHN): > 100 µM (inactive)
- GI50 (UACC-62): > 100 µM (inactive)
- GI50 (PC-3): > 100 µM (inactive)
- GI50 (SK-MEL-2): > 100 µM (inactive)
- GI50 (MDA-MB-231): > 100 µM (inactive)
- GI50 (Hs-578T): > 100 µM (inactive)
- GI50 (A549): > 100 µM (inactive)
- GI50 (EKVX): 76 µM (inactive)
- GI50 (786-0): > 100 µM (inactive)
- GI50 (TK-10): > 100 µM (inactive)
- GI50 (NCI-H226): > 100 µM (inactive)
- GI50 (MCF7): > 100 µM (inactive)
- GI50 (KM12): > 100 µM (inactive)
- GI50 (OVCAR-3): > 100 µM (inactive)
- GI50 (BT-549): > 100 µM (inactive)
- GI50 (IGROV-1): > 100 µM (inactive)
- GI50 (SN12C): > 100 µM (inactive)
- GI50 (Malme-3M): > 100 µM (inactive)
- GI50 (COLO 205): > 100 µM (inactive)
- GI50 (HCT-116): > 100 µM (inactive)
- GI50 (U-251): > 100 µM (inactive)
- GI50 (HCT-15): > 100 µM
- GI50 (UO-31): > 100 µM (inactive)
- GI50 (MDA-N): > 100 µM (inactive)
- GI50 (SF-295): > 100 µM (inactive)
- GI50 (SR): > 100 µM (inactive)
- GI50 (M14): > 100 µM (inactive)
- GI50 (NCI-H460): > 100 µM (inactive)
- GI50 (A498): > 100 µM (inactive)
- GI50 (MDA-MB-435): > 100 µM (inactive)
- GI50 (SNB-75): > 100 µM (inactive)
- GI50 (CAKI-1): > 100 µM (inactive)
- GI50 (DU-145): > 100 µM (inactive)
- GI50 (SNB-19): > 100 µM (inactive)
- GI50 (LOX IMVI): > 100 µM (inactive)
- GI50 (RPMI-8226): > 100 µM (inactive)
- GI50 (OVCAR-4): > 100 µM (inactive)
- GI50 (HOP-62): > 100 µM (inactive)
- GI50 (SK-MEL-28): > 100 µM (inactive)
- GI50 (OVCAR-8): > 100 µM (inactive)

Reference: ChEMBL document CHEMBL1201862, “PubChem BioAssay data set” (2004)
